Each structure is given as a SMILES string. Active and inactive are the calls of the source. Where only a bound is given, the exact number is not on record here.

The test system of test [1] is INS1. As to the kind of experiment: INS-1E survival protection against cytokine death – cell-based, luminescence, retest, dose response (AID 449756).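 Further: cell death triggered by IL-1 beta plus TNF-alpha plus IFN-gamma mixture; protective hits raise ATP signal compared with cytokine alone wells.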 In kind it is functional. The conditions noted are these: Rattus norvegicus.
In test [2] the target is T1, Calpain-2 catalytic subunit (Sus scrofa, UniProt P43367).
T1 sequence (P43367 whole entry): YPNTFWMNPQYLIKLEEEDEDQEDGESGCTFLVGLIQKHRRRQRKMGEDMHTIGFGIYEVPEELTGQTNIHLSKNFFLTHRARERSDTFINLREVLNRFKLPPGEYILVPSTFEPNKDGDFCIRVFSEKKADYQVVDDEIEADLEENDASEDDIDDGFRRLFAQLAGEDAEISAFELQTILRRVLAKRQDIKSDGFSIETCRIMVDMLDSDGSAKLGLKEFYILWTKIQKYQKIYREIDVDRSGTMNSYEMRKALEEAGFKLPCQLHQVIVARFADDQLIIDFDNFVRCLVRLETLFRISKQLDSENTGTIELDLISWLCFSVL
As to the kind of experiment: m-calpain protease blockers, concentration series – biochemical, fluorogenic peptide substrate, dose response (AID 1420). In kind it is functional.

The target of test [3] is T2, Protein RecA (Mycobacterium tuberculosis, UniProt P9WHJ3).
T2 sequence (P9WHJ3 whole entry): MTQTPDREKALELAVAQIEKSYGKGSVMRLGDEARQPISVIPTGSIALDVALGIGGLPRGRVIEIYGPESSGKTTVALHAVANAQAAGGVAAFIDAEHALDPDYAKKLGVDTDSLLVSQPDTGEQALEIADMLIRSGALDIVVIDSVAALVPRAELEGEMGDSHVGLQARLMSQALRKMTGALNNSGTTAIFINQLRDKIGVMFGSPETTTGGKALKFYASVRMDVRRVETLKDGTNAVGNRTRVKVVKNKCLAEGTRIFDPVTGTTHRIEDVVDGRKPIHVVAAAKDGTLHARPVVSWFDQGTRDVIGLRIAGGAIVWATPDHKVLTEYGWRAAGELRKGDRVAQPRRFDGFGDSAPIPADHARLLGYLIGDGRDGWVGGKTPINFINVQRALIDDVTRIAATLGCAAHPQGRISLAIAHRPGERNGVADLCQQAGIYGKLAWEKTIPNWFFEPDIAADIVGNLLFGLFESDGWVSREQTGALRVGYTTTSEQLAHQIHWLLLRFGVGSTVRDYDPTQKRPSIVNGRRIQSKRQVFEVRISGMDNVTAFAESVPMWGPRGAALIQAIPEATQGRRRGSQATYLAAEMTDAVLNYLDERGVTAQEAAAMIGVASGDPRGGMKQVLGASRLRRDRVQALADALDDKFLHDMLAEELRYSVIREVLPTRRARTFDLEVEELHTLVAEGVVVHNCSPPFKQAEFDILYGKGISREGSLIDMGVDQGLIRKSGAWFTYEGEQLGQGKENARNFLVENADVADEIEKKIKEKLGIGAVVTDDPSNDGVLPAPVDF
As to the kind of experiment: Fluorescence Cell-Free Homogeneous Dose Retest to Identify Inhibitors of RecA-Intein Splicing Activity. [Related pubchem assays (depositor defined):AID2097, AID2223, AID489010, AID492950]. In kind it is functional.

In test [4] the target is T3, Replicative DNA helicase DnaB (Mycobacterium tuberculosis, UniProt P9WMR3).
T3 sequence (P9WMR3 whole entry): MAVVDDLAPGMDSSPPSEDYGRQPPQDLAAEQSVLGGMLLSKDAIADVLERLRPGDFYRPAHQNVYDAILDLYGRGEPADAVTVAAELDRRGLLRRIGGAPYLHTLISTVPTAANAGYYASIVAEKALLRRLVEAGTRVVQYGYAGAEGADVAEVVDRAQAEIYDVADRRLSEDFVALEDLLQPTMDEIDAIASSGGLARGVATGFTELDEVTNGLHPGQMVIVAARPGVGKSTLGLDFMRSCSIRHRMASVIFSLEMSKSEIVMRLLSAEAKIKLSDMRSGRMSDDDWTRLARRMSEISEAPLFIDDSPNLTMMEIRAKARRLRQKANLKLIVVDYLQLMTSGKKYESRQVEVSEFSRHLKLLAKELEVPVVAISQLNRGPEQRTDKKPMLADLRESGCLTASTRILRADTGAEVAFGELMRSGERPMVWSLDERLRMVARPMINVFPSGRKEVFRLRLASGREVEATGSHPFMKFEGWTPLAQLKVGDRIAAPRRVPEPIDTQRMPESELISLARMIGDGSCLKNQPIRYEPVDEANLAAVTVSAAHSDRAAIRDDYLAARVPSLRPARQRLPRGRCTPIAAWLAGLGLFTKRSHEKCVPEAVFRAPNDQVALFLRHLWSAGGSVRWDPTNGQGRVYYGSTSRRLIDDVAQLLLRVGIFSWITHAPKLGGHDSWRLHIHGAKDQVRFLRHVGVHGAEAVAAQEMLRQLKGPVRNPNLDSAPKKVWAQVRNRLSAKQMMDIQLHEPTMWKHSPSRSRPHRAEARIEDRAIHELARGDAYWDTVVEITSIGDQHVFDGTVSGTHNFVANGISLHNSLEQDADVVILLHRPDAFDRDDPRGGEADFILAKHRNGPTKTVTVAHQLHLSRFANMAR
As to the kind of experiment: DnaB intein splicing inhibitors, dose response, biochemical, cell-free fluorescence (AID 449749). In kind it is functional.

Test [5] deals with T4, Sentrin-specific protease 8 (Homo sapiens, UniProt Q96LD8).
T4 sequence (Q96LD8 whole entry): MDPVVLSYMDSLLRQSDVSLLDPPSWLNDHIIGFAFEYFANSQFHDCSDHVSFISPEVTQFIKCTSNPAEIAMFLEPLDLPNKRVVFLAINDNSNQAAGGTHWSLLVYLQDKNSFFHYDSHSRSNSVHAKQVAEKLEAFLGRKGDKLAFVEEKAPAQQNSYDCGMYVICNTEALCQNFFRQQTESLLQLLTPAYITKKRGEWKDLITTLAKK
In kind it is functional.

Test [6] in a line: Counterscreen for AddAB inhibitors: absorbance-based bacterial cell-based high throughput dose response assay for inhibitors of bacterial viability. [Related pubchem assays (depositor defined):AID435030, AID449728, AID449731, AID488942, AID488955, AID488956]. In kind it is functional.
The subject of test [7] is Streptococcus sp. 'group A'. As to the kind of experiment: Streptococcus pyogenes SK(-)GAS viability under kanamycin – luminescence, BacTiterGlo, confirmation, counter-screen for streptokinase expression inhibitor project, dose response (AID 1900). In kind it is functional, organism-based. Background: Counterscreens check selectivity or assay interference.
In test [8] the test system is Streptococcus. Nature of the test: GAS UMAA2166 growth inhibition – luminescence, BacTiterGlo, counter-screen for streptokinase expression inhibitor project, dose response (AID 1915).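 Further: potency for reduction of bacterial viability or growth.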 In kind it is functional, organism-based.

The AC50 is the midpoint of the concentration-response curve, whichever way the signal moves. Usually IC50 stands for the midpoint of a concentration-inhibition curve. As a reminder, the EC50 is the concentration needed to bring the measured effect to its halfway point. Consider `Cn1nc(-c2ccc(Cl)cc2)nc2c(=O)n(C)c(=O)nc1-2`, for which the AC50 was 0.441 µM (active) in test [1] and 0.0409 µM (active) in test [4]. Also, in test [2], the IC50 is 24.7 µM (not active). The EC50 in test [3] is 0.0305 µM (active).

With `SC1=Nc2ccccc2C1`, in test [2], the IC50 was 14.9 µM (not active). Besides, the half-maximal effective concentration (EC50) in test [3] is 1.66 µM (active). Besides, the AC50 in test [4] is 1.77 µM (active).

Take `NS(=O)(=O)c1ccc(NC(=O)COC(=O)c2ccc([N+](=O)[O-])s2)cc1`: in test [5], the 50% inhibitory concentration (IC50) was 4.33 µM (active).

Consider `CCCCNc1cc(NC(C)=O)cc2cc(OC)c(OC)cc12`, for which, in test [5], the IC50 is 18.3 µM (active).

In the case of `COc1ccc(C(NC(=O)C(C)C)c2ccc3cccnc3c2O)cc1` (stereo unspecified), the AC50 in test [1] is 0.65 µM (active). In test [6], the IC50 is > 119 µM (inactive). Further, the concentration giving a half-maximal response (EC50) in test [7] is 7.99 µM (active); in test [8], > 150 µM (not active).

Turning to `O=C(Cc1ccc([N+](=O)[O-])cc1)N/N=C/c1ccc([N+](=O)[O-])o1`, the IC50 in test [6] is 16.6 µM (inactive). Also, the concentration giving a half-maximal response (EC50) in test [7] was 11.9 µM (active); in test [8], 21.7 µM (active).

The values are drawn from ChEMBL document CHEMBL1201862, “PubChem BioAssay data set” (2004).
